Assay results reported in US20160137746A1, “METHODS FOR TREATING HIGH CARDIOVASCULAR RISK PATIENTS WITH HYPERCHOLESTEROLEMIA” (Sanofi Biotechnology, priority 2014, published 2016).
Where “and” joins values, the source holds several entries; their conditions need not be identical. Equal values may be shown once.

System: high cardiovascular risk patients with hypercholesterolemia
Assay: ODYSSEY LONG TERM: lipid efficacy of alirocumab 150 mg Q2W vs placebo
Assay type: in vivo, human
Procedure: Patients were stratified according to heFH population, prior history of MI or ischemic stroke, statin treatment and geographic region. Patients at high cardiovascular risk were defined as 1) having heFH (who may or may not have CHD/CHD risk equivalents) or 2) no prior diagnosis of heFH but having hypercholesterolemia together with established CHD or CHD risk equivalents.
Primary analyses of efficacy endpoints were conducted using an ITT approach (based on the ITT population defined above), including all lipid data, regardless of whether the patient was continuing therapy or not. This corresponds to ITT estimands, defined for primary and key secondary endpoints. In addition, analyses were also conducted using an on-treatment approach (based on the mITT population defined above), including lipid data collected during the efficacy treatment period. This corresponds to on-treatment estimands of key secondary endpoints.
With regards to the primary efficacy analysis (ITT approach), the percent change in calculated LDL-C from baseline to Week 24 was analyzed using a mixed-effect model with repeated measures (MMRM) approach. All post-baseline data available from Week 4 to Week 52 analysis windows were used and missing data were accounted for by the MMRM. […] This model provided baseline adjusted least-squares means (LSmeans) estimates at Week 24 for both treatment groups with their corresponding SEs and 95% confidence intervals.
Continuous secondary variables anticipated to have a normal distribution (i.e., lipids other than TGs and Lp(a)) were analyzed using the same MMRM model as for the primary endpoint. […] Combined estimate for mean in both treatment groups, as well as the differences of these estimates, with their corresponding SEs, 95% Cls and p-value were provided (through SAS MIANALYZE procedure).
Binary secondary efficacy endpoints were analyzed using multiple imputation approach for handling of missing values followed by stratified logistic regression with treatment group as main effect and corresponding baseline value(s) as covariate, stratified by randomization factors (as per IVRS). Combined estimates of odds ratio versus placebo, 95% CI, and p-value were provided (through SAS MIANALYZE procedure).

[1] = Week 24, total PCSK9 levels at or above the median
[2] = Week 24, total PCSK9 levels below the median
[3] = Week 24, ITT population, MMRM, alirocumab 150 Q2W
[4] = subgroup baseline HDL-C <40 mg/dL/<1.04 mmol/L, ITT
[5] = subgroup baseline HDL-C ≧40 mg/dL/≧1.04 mmol/L, ITT
[6] = subgroup baseline calculated LDL-C <100 mg/dL/<2.59 mmol/L, ITT
[7] = subgroup baseline calculated LDL-C ≧160 mg/dL/≧4.14 mmol/L, ITT
[8] = subgroup baseline calculated LDL-C ≧100 to <130 mg/dL/≧2.59 to <3.37 mmol/L, ITT
[9] = subgroup baseline calculated LDL-C ≧130 to <160 mg/dL/≧3.37 to <4.14 mmol/L, ITT

## Alirocumab: human anti-PCSK9 antibody; HCVR SEQ ID NO:1, LCVR SEQ ID NO:6; CDRs SEQ ID NOs 2/3/4/7/8/10
Week 24, men
  Calculated LDL-C, LS mean percent change from baseline: −65.5%
Week 24, patients with baseline LDL-C <100 mg/dL
  Calculated LDL-C percent change, treatment effect versus placebo: −75.0%
Week 24, patients with baseline LDL-C ≧160 mg/dL
  Calculated LDL-C percent change, treatment effect versus placebo: −41.3%
[1]
  Calculated LDL-C percent change, LS mean difference vs placebo: −66.0%
  Calculated LDL-C, LS mean percent change from baseline: −62.1%
[2]
  Calculated LDL-C percent change, LS mean difference vs placebo: −57.3%
  Calculated LDL-C, LS mean percent change from baseline: −60.1%
Week 24, women
  Calculated LDL-C percent change, LS mean difference vs placebo: −56.6%
  Calculated LDL-C, LS mean percent change from baseline: −53.4%
Week 24, ITT population
  Apo A1, LS mean (SE) change from baseline to Week 24 (%): 4.0 (0.4) %
  Apo B, LS mean (SE) change from baseline to Week 24 (%): −52.8 (0.7) %
  Fasting triglycerides, combined estimate for adjusted mean (SE) change from baseline to Week 24 (%): −15.6 (0.8) %
  HDL-C, LS mean (SE) change from baseline to Week 24 (%): 4.0 (0.4) %
  Lipoprotein (a), combined estimate for adjusted mean (SE) change from baseline to Week 24 (%): −29.3 (0.7) %
  Non-HDL-C, LS mean (SE) change from baseline to Week 24 (%): −51.6 (0.6) %
  Proportion (%) of patients reaching calculated LDL-C levels at Week 24: <70 mg/dL (regardless of risk): 79.3%
  Proportion (%) of patients reaching calculated LDL-C levels at Week 24: <70 mg/dL (very high risk) or <100 mg/dL (high risk): 80.7%
  Total cholesterol, LS mean (SE) change from baseline to Week 24 (%): −37.8 (0.5) %
Week 24, ITT population, MMRM
  Calculated LDL-C Week 24 percent change from baseline, LS mean difference (SE) vs placebo: −61.9 (1.3) %
[3]
  Calculated LDL-C percent change from baseline, LS mean (SE): −61.0 (0.7) % and −61.0%
  Calculated LDL-C value (absolute level), LS mean (SE): 48.3 (0.9) mg/dL
  Calculated LDL-C value, LS mean (SE): 1.252 mmol/L
Week 24, ITT, LDL-cholesterol measured by beta-quantification
  LS mean (SE) change from baseline to Week 24 in measured LDL-C: −57.8 (0.8) %
Week 24, On-treatment
  Apo-B - Percent change from baseline to Week 24, LS mean difference vs. placebo: placebo of −55.5%
  Calculated LDL-C - Percent change from baseline to Week 24, LS mean difference vs. placebo: placebo of −63.5%
  Non-HDL-C - Percent change from baseline to Week 24, LS mean difference vs. placebo: placebo of −53.7%
Week 24, subgroup baseline calculated LDL-C <100 mg/dL/<2.59 mmol/L, ITT
  LS mean absolute LDL-C reduction: -51.6 mg/dL
Week 24, subgroup baseline calculated LDL-C ≧160 mg/dL/≧4.14 mmol/L, ITT
  LS mean absolute LDL-C reduction: -115.8 mg/dL
Week 24, subgroup baseline calculated LDL-C ≧100 to <130 mg/dL/≧2.59 to <3.37 mmol/L, ITT
  LS mean absolute LDL-C reduction: -71.2 mg/dL
Week 24, subgroup baseline calculated LDL-C ≧130 to <160 mg/dL/≧3.37 to <4.14 mmol/L, ITT
  LS mean absolute LDL-C reduction: -85.3 mg/dL
Week 36, ITT population, MMRM, alirocumab 150 Q2W
  Calculated LDL-C percent change from baseline, LS mean (SE): −59.5%
Week 52, ITT population, MMRM, alirocumab 150 Q2W
  Calculated LDL-C percent change from baseline, LS mean (SE): −56.8%
Week 78
  Additional LDL-C reduction from baseline versus placebo: 56%
Week 78, ITT population
  Percentage change from baseline to Week 78 in calculated LDL-C: −52.4 (0.9) %
  Percentage change from baseline to Week 78 in calculated LDL-C, LS mean difference (SE) vs placebo: −56.0 (1.6) %
intention-to-treat, Week 24 (final analysis)
  Percent decrease in LDL cholesterol: 61%
[4]
  Percent change from baseline in calculated LDL-C at week 24, LS mean difference (SE) vs placebo: −66.1 (2.8) %
  Percent change from baseline in calculated LDL-C at week 24, LS means (SE): −65.5 (1.6) %
[5]
  Percent change from baseline in calculated LDL-C at week 24, LS mean difference (SE) vs placebo: −60.8 (1.4) %
  Percent change from baseline in calculated LDL-C at week 24, LS means (SE): −59.9 (0.8) %
[6]
  Percent change from baseline in calculated LDL-C at week 24, LS mean difference (SE) vs placebo: −75.0 (2.2) %
  Percent change from baseline in calculated LDL-C at week 24, LS means (SE): −61.3 (1.3) %
[7]
  Percent change from baseline in calculated LDL-C at week 24, LS mean difference (SE) vs placebo: −41.3 (3.3) %
  Percent change from baseline in calculated LDL-C at week 24, LS means (SE): −59.5 (1.9) %
[8]
  Percent change from baseline in calculated LDL-C at week 24, LS mean difference (SE) vs placebo: −62.5 (2.0) %
  Percent change from baseline in calculated LDL-C at week 24, LS means (SE): −62.0 (1.2) %
[9]
  Percent change from baseline in calculated LDL-C at week 24, LS mean difference (SE) vs placebo: −54.6 (2.9) %
  Percent change from baseline in calculated LDL-C at week 24, LS means (SE): −59.8 (1.7) %
